Results from patent US9309410B2, “Colorant compounds” (Xerox Corporation, priority 2013, dated 2016).

Assay: Solubility testing in polyethylene wax (POLYWAX 655)
Format: physicochemical
Conditions: 1 g Solvent Black 3 or 2 g distearyl derivative in 50 g POLYWAX 655; 120° C. oil bath, stirred 3 h, then 1 h without stirring
Source text: Solvent Black 3 (NEPTUN BLACK X60, BASF), of the formula
[drawing 36] molecular weight 456, and the distearyl derivative, a compound as disclosed herein, of the formula
[drawing 37] molecular weight 892, were compared for solubility in polyethylene wax, a predominant component in phase change inks. 1 g of the Solvent Black 3 and 2 g of the distearyl derivative (because its molecular weight was about twice that of Solvent Black 3) were each dissolved in 50 g portions of POLYWAX 655 (Baker Petrolite) in 100 mL beakers equipped with magnetic stir bars. The solutions were placed in 120° C. oil baths and allowed to stir for 3 h, followed by cessation of stirring for 1 h, after which the solutions were poured into aluminum tins.

Compound	solubility in polyethylene wax (solids on the bottom of the beaker)
CC1(C)Nc2cccc3c(/N=N/c4ccc(/N=N/c5ccccc5)c5ccccc45)ccc(c23)N1 [Solvent Black 3]	a substantial amount of the Solvent Black 3 appeared on the bottom of its beaker
CCCCCCCCCCCCCCCCCC1(CCCCCCCCCCCCCCCCC)Nc2cccc3c(/N=N/c4ccc(/N=N/c5ccccc5)c5ccccc45)ccc(c23)N1 [distearyl derivative]	almost no solids appeared on the bottom of the beaker
